Data reported in article PMC7044277 (Nature Communications, 2020).
Several values for one entry are separate records, joined by “and”; a condition that tells them apart may be missing. Equal entries are not always repeated.

Legend:
Type in all cases: cell-based
320 non-olfactory GPCRs [1] = molecular target: 320 non-olfactory GPCRs (Homo sapiens, UniProt P21554)
320 non-olfactory GPCRs [2] = molecular target: T1, 320 non-olfactory GPCRs (Homo sapiens, UniProt Q5NUL3)
T1 construct: expressed in transfected cells; host or cells: HTLA cells

320 non-olfactory GPCRs [3] = molecular target: T2, 320 non-olfactory GPCRs (Homo sapiens, UniProt Q6U736); conditions: receptor OPN5; replicate values, Fig_4g
T2 construct: expressed in transfected cells; host or cells: HTLA cells

320 non-olfactory GPCRs [4] = molecular target: T3, 320 non-olfactory GPCRs (Homo sapiens, UniProt Q96AM1); conditions: receptor MRGPRF; replicate values, Fig_4g
T3 construct: expressed in transfected cells; host or cells: HTLA cells
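For Fold of Basal in this document: compound tested at 1 µM final concentration.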
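For GPCRome agonism screen response in this document: fold over basal response of each receptor without drug.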

T3 sequence (Q96AM1 whole entry): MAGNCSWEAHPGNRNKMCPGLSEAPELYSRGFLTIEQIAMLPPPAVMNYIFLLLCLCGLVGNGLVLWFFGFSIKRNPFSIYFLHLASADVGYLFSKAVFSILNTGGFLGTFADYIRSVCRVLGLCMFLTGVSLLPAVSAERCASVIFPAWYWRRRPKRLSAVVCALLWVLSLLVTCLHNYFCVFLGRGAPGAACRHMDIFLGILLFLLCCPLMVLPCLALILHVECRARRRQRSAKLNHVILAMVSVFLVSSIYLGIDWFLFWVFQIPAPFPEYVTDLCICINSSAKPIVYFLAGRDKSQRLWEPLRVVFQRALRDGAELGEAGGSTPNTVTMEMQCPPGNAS
T1 sequence (Q5NUL3 whole entry): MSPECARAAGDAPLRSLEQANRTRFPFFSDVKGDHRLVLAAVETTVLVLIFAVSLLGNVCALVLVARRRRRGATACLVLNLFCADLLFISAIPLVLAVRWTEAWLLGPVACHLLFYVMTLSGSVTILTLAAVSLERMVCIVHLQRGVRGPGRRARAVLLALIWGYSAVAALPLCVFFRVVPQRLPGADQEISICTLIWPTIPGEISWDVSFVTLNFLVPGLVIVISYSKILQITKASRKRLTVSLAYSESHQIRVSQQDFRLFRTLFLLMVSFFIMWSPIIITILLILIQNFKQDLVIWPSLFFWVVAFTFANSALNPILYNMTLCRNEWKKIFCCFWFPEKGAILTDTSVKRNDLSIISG
Chain of 320 non-olfactory GPCRs (Homo sapiens, UniProt P21554) (P21554 whole entry): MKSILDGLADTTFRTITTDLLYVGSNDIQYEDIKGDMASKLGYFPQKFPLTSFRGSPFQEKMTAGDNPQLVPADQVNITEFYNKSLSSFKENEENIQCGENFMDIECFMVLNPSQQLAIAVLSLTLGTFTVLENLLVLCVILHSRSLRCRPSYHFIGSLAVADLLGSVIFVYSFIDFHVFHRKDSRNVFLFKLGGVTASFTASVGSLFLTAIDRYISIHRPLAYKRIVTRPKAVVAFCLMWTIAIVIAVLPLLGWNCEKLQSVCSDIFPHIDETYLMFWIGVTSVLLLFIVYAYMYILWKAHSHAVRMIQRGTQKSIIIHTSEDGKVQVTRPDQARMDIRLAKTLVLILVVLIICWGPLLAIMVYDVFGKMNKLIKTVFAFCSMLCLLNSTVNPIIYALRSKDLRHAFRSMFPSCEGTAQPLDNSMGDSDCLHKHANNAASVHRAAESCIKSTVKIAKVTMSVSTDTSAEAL
T2 sequence (Q6U736 whole entry): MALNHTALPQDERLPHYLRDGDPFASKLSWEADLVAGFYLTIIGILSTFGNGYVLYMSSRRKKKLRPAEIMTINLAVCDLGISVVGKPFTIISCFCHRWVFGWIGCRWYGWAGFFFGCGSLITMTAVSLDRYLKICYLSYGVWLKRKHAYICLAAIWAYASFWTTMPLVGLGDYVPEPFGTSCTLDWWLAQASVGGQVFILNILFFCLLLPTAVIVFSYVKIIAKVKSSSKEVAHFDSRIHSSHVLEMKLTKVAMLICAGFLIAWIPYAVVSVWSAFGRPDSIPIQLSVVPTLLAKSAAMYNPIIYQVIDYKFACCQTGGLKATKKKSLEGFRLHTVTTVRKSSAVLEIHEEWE

What does the source list for CCOc1cccc2cc(C(C)NCC3(O)CCCCC3)oc12 (stereo not shown) [O4LE6]?
Fold of Basal (320 non-olfactory GPCRs [1]): 1.089 and 1.197 and 0.9218 and 0.8315; Fold of Basal (320 non-olfactory GPCRs [2]): 1.4501 and 0.8868 and 0.9227 and 1.231; GPCRome agonism screen response (320 non-olfactory GPCRs [3]): 0.05197 and 0.3541 and 1.246 and 1.464; GPCRome agonism screen response (320 non-olfactory GPCRs [4]): 0.9496 and 0.9687 and 0.9252 and 0.5763
